Experimental data taken from PubChem BioAssay (NCI).
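Tested at 5 concentrations; 48 h exposure; 96-well plates; endpoints linearly interpolated, else capped at highest concentration. Abbreviation: GI50, concentration required for 50% inhibition of growth. At the TGI there is no net growth.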

How the values were obtained:
Assay in all cases: NCI anticancer screen, dose series, 48 h
[1] = test system: A498 renal
[2] = test system: BT-549 breast
[3] = test system: CCRF-CEM leukemia
[4] = test system: K-562 leukemia
[5] = test system: MDA-MB-231 breast
[6] = test system: NCI-H522 lung
[7] = test system: SN12C renal
[8] = test system: T-47D breast
[9] = test system: HCC-2998 colon
[10] = test system: NCI-H23 lung

Structure (SMILES) | GI50 [1] | TGI [1] | GI50 [2] | TGI [2] | GI50 [3] | TGI [3] | GI50 [4] | TGI [4] | GI50 [5] | TGI [5] | GI50 [6] | TGI [6] | GI50 [7] | TGI [7] | GI50 [8] | TGI [8] | TGI [9] | TGI [10] | GI50 [9] | GI50 [10]
O=C1/C(=C/c2ccc([N+](=O)[O-])s2)Oc2cc(Cl)ccc21 | 29.8 µM | > 85.2 µM | 0.698 µM | 2.09 µM | 0.325 µM | 1.48 µM | 0.296 µM | 1.46 µM | 0.404 µM | 1.75 µM | 0.25 µM | 0.713 µM | 2.36 µM | > 100 µM | 1.5 µM | > 100 µM |  |  |  | 
N#CC1C[C@@H]2CC3(CCC2CN1C(=O)c1ccccc1)OCCO3 (stereo not given in full) |  | > 100 µM |  |  |  | > 100 µM |  | > 100 µM | > 100 µM | > 100 µM |  |  |  | > 100 µM | > 100 µM | > 100 µM | > 100 µM | > 100 µM |  | 
CC1(C)CC(=O)C=C(/C=C/Sc2c(Cl)c(Cl)nc(Cl)c2Cl)C1 | 21.7 µM | 36.6 µM | 5.87 µM | 22.3 µM |  |  | 8.79 µM | > 100 µM | 7.22 µM | 20.4 µM | 6.17 µM | 37 µM | 4.56 µM | 16.3 µM |  |  | 21.3 µM | 19.3 µM | 9.46 µM | 6.34 µM
CCc1ccccc1NC(=O)C(C#N)C1=C(Cl)C(=O)c2ccccc2C1=O (stereo not given) |  |  |  | 71.7 µM |  | > 100 µM |  | > 100 µM |  | 22 µM |  | 29.7 µM |  | 27.9 µM |  | 52.4 µM |  | 29.5 µM |  | 
COC(=O)Oc1nn(C(=O)OC)c(=O)c2ccccc12 |  |  |  | > 100 µM |  | > 100 µM |  | > 100 µM |  | > 100 µM |  | > 100 µM |  | > 100 µM |  | > 100 µM | > 100 µM | > 100 µM |  | 
Cc1ccc([P+](Cc2ccccc2)(c2ccccc2)c2ccccc2)cc1 | 1.63 µM | 7.15 µM | 3.31 µM | 14.8 µM | 2.5 µM | 18.9 µM | 1.26 µM | > 100 µM | 2.17 µM | 19.2 µM | 1.78 µM | 6.88 µM | 2.66 µM | 13.1 µM |  |  | 25.1 µM |  | 2.66 µM | 
COc1ccc(-c2coc3cc(O)ccc3c2=O)cc1 |  | > 100 µM |  |  |  | > 100 µM |  | > 100 µM |  | > 100 µM |  | > 100 µM |  | > 100 µM |  | > 100 µM | > 100 µM | > 100 µM |  | 
N#CC(C#N)=CNCCN1CCN(C=C(C#N)C#N)CC1 |  | > 100 µM |  | > 100 µM |  |  |  | > 100 µM |  | > 100 µM |  | > 100 µM |  | > 100 µM |  | > 100 µM |  | > 100 µM |  | 
COC1=CC(c2ccc[nH]2)=N/C1=C\c1[nH]c(C)c(C(=O)CCC(=O)Oc2ccc3c(c2)CCC2C3CC[C@]3(C)[C@@H](O)CC[C@@H]23)c1C (stereo not given in full) | 1.87 µM | 8.82 µM | 3.51 µM | 61.5 µM | 0.304 µM | > 100 µM |  |  | 0.46 µM | 2.55 µM | 1.99 µM | 6.5 µM | 5.06 µM | > 100 µM | 2.19 µM | > 100 µM | > 100 µM | > 100 µM | 4.05 µM | 3.56 µM
